In ChEMBL document CHEMBL2034937, “Novel 3-Oxazolidinedione-6-aryl-pyridinones as Potent, Selective, and Orally Active EP3 Receptor Antagonists” (ACS Med Chem Lett, 2010):
pIC50, pKi: −log10 of the molar value. In brackets after ≈: the same amount, converted by molar mass.

Experiments:
[1] = Drug metabolism in rat liver S9 fraction assessed as NADPH-dependent glutathione conjugate level at 10 uM after 30 mins by LC-MS/MS analysis; format: ADME, subcellular; conditions: s9, 0.5 h
[2] = molecular target: T1, Prostaglandin E2 receptor EP3 subtype (Rattus norvegicus, UniProt P34980); assay: Antagonist activity at rat EP3 receptor expressed in human U2OS cells co-expressing Gqi5 assessed as inhibition of PGE2-induced response after 24 hrs by FLIPR assay; format: functional, cell-based
T1 sequence (P34980 whole entry): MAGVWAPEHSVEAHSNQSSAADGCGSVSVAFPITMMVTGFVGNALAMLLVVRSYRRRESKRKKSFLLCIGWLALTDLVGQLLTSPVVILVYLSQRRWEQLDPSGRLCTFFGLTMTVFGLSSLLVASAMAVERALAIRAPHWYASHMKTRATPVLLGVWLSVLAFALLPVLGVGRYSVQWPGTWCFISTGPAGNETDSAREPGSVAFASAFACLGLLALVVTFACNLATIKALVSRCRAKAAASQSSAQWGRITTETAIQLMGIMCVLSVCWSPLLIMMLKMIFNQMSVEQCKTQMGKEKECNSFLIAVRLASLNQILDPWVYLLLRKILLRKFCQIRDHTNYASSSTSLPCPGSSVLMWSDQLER

[3] = Clearance in Sprague-Dawley rat at 1 mg/kg, iv and 2 mg/kg, po; format: ADME, organism-based; conditions: in vivo
[4] = Drug metabolism in rat liver S9 fraction assessed as glutathione conjugate level at 10 uM after 30 mins by HPLC in absence of NADPH; format: ADME, subcellular; conditions: s9, 0.5 h
Rattus norvegicus = assay: Dose-normalized AUC in Sprague-Dawley rat at 2 mg/kg, po; format: ADME, organism-based; parameters: dose 2 mg/kg, route oral; conditions: in vivo
[5] = Half life in Sprague-Dawley rat at 1 mg/kg, iv; format: ADME, organism-based; parameters: dose 1 mg/kg, route intravenous; conditions: in vivo
[6] = Oral bioavailability in Sprague-Dawley rat at 2 mg/kg; format: ADME, organism-based; conditions: in vivo
[7] = Drug metabolism in human liver S9 fraction assessed as glutathione conjugate level at 10 uM after 30 mins by HPLC in absence of NADPH; format: ADME, subcellular; conditions: s9, 0.5 h
[8] = Drug metabolism in human liver S9 fraction assessed as NADPH-dependent glutathione conjugate level at 10 uM after 30 mins by LC-MS/MS analysis; format: ADME, subcellular; conditions: s9, 0.5 h
[9] = molecular target: T2, Prostaglandin E2 receptor EP3 subtype (Homo sapiens, UniProt P43115); assay: Antagonist activity at human EP3c receptor expressed in human U2OS cells assessed as inhibition of PGE2-induced calcium mobilization after 24 hrs by FLIPR assay; format: functional, cell-based
T2 sequence (P43115 whole entry): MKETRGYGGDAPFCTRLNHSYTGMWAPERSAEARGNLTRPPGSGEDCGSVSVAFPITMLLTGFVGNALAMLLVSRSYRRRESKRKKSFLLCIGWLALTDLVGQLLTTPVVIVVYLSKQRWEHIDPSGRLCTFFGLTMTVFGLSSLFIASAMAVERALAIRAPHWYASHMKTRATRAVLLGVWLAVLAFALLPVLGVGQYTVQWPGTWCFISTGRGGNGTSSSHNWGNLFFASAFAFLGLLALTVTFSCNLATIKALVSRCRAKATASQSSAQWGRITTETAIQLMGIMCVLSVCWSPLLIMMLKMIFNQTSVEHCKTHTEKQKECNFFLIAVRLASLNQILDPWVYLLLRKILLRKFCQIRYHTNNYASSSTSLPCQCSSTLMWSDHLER

[10] = molecular target: T2, Prostaglandin E2 receptor EP3 subtype; assay: Binding affinity to human EP3
Cytochrome P450 2D6 = Cytochrome P450 2D6 (Homo sapiens, UniProt P10635); assay: Inhibition of CYP2D6; format: ADME
[11] = molecular target: T3, Prostaglandin G/H synthase 1 (Rattus norvegicus, UniProt Q63921); assay: Inhibition of COX1 in rat whole blood assessed as decreased PGE2 production; format: tissue-based
T3 sequence (Q63921 whole entry): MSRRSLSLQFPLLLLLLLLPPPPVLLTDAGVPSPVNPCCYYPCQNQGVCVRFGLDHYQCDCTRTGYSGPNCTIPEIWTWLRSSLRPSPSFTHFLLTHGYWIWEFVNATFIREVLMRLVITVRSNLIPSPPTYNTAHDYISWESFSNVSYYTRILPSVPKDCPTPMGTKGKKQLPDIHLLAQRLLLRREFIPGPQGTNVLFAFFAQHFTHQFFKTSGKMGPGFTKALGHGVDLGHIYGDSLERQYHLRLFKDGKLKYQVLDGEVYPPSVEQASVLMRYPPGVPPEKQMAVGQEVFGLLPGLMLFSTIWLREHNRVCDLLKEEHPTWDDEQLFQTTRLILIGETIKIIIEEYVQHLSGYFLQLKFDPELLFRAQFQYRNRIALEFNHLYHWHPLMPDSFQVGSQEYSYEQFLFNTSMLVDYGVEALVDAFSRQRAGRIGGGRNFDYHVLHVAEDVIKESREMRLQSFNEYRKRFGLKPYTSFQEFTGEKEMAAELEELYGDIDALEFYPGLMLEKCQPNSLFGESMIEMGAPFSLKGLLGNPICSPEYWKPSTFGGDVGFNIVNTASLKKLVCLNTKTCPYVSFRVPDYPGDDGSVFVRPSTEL

[12] = molecular target: T4, Prostaglandin G/H synthase 2 (Rattus norvegicus, UniProt P35355); assay: Inhibition of COX2 in rat whole blood assessed as decreased PGE2 production; format: tissue-based
T4 sequence (P35355 whole entry): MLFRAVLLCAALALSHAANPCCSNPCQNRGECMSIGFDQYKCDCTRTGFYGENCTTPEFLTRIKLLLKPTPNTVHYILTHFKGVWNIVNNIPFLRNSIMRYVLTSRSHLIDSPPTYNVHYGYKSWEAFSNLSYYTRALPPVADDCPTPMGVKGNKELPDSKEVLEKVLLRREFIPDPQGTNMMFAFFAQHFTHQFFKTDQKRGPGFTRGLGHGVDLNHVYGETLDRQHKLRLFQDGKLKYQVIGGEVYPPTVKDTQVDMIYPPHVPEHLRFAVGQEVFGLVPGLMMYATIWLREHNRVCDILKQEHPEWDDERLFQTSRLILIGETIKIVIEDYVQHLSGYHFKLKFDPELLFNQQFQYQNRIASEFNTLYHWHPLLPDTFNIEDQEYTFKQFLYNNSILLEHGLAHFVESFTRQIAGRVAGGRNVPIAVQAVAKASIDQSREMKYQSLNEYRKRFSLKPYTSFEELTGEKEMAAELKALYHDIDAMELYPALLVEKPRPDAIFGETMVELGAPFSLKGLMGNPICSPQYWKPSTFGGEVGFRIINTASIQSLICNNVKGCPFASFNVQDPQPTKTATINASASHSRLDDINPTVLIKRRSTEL

[13] = molecular target: Prostaglandin E2 receptor EP2 subtype (Homo sapiens, UniProt P43116); assay: Antagonist activity against human EP2 receptor expressed in CHO-K1 cells assessed as inhibition of cAMP production after 4 hrs by FRET signal in LANCE assay; format: functional, cell-based
[14] = molecular target: Prostaglandin E2 receptor EP4 subtype (Homo sapiens, UniProt P35408); assay: Binding affinity at human EP4 receptor
[15] = molecular target: Prostaglandin F2-alpha receptor (Homo sapiens, UniProt P43088); assay: Antagonist activity at FP receptor in human U2OS cells expressing Gqi5 assessed as inhibition of PGE2-induced response after 48 hrs by FLIPR assay; format: functional, cell-based
[16] = Aqueous solubility of the compound; format: physicochemical; conditions: buffer
[17] = molecular target: T5, Prostaglandin E2 receptor EP1 subtype (Homo sapiens, UniProt P34995); assay: Antagonist activity at EP1 receptor in human U2OS cells expressing Gqi5 assessed as inhibition of PGE2-induced response after 24 hrs by FLIPR assay; format: functional, cell-based
T5 sequence (P34995 whole entry): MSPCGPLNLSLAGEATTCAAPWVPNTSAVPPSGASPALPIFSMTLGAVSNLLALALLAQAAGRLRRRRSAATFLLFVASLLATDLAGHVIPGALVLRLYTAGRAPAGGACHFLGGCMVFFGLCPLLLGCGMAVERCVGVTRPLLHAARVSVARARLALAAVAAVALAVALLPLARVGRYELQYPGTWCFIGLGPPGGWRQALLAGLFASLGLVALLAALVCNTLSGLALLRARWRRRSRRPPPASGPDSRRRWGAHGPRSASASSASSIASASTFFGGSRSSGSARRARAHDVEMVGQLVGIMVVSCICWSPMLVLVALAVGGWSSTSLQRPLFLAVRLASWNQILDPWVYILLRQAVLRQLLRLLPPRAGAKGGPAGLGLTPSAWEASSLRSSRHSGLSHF

Cytochrome P450 1A2 = molecular target: T6, Cytochrome P450 1A2 (Homo sapiens, UniProt P05177); assay: Inhibition of CYP1A2; format: ADME
T6 sequence (P05177 whole entry): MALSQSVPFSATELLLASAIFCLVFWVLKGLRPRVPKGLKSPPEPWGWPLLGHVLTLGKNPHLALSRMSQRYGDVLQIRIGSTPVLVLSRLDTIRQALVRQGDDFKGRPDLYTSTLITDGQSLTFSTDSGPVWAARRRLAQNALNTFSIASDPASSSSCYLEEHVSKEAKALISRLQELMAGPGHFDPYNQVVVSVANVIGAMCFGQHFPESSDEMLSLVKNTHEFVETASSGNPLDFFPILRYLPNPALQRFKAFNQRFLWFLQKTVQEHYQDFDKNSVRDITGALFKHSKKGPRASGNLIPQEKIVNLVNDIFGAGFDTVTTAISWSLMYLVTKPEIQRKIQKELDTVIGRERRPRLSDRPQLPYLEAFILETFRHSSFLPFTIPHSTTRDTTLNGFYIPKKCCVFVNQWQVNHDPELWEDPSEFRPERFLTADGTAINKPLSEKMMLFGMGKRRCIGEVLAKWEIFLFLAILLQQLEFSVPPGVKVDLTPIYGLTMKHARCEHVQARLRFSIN

[18] = molecular target: T7, Prostaglandin D2 receptor (Homo sapiens, UniProt Q13258); assay: Binding affinity at human DP receptor
T7 sequence (Q13258 whole entry): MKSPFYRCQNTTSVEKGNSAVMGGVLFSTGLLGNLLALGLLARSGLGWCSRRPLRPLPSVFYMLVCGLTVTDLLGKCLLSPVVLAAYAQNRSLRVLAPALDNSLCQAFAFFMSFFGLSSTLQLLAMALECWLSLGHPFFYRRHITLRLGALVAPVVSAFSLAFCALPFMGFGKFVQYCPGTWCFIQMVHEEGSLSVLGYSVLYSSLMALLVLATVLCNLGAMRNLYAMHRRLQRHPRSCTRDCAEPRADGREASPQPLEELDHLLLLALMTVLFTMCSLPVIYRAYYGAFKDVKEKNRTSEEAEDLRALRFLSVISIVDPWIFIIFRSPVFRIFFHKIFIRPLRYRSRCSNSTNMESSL

[19] = molecular target: Voltage-gated inwardly rectifying potassium channel KCNH2 (Homo sapiens, UniProt Q12809); assay: Inhibition of human ERG
Cytochrome P450 2C9 = Cytochrome P450 2C9 (Homo sapiens, UniProt P11712); assay: Inhibition of CYP2C9; format: ADME
Cytochrome P450 2C19 = Cytochrome P450 2C19 (Homo sapiens, UniProt P33261); assay: Inhibition of CYP2C19; format: ADME
Cytochrome P450 3A4 = Cytochrome P450 3A4 (Homo sapiens, UniProt P08684); assay: Inhibition of CYP3A4; format: ADME
Cytochrome P450 3A4, sequence (P08684 whole entry): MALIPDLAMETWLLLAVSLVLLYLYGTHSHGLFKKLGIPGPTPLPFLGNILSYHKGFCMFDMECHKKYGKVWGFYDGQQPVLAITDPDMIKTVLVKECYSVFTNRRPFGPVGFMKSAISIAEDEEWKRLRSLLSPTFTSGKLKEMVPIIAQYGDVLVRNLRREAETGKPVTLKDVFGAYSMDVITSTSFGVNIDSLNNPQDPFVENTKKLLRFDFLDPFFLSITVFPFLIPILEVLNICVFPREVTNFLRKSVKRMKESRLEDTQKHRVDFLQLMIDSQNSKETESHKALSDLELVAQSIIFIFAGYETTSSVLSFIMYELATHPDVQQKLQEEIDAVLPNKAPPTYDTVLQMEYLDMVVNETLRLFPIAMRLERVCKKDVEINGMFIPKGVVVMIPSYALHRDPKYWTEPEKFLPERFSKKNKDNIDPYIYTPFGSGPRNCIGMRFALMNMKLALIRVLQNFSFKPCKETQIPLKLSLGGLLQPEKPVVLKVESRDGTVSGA

Prostaglandin E2 receptor EP2 subtype, sequence (P43116 whole entry): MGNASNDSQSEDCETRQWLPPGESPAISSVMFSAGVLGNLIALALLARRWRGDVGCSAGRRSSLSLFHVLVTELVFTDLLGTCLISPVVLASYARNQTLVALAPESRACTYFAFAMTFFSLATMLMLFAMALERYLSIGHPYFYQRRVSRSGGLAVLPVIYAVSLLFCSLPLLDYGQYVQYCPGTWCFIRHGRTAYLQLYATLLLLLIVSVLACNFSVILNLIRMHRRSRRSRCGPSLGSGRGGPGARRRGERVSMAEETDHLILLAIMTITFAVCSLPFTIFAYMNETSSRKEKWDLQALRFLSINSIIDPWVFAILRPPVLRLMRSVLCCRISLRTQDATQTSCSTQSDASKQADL
Cytochrome P450 2D6, sequence (P10635 whole entry): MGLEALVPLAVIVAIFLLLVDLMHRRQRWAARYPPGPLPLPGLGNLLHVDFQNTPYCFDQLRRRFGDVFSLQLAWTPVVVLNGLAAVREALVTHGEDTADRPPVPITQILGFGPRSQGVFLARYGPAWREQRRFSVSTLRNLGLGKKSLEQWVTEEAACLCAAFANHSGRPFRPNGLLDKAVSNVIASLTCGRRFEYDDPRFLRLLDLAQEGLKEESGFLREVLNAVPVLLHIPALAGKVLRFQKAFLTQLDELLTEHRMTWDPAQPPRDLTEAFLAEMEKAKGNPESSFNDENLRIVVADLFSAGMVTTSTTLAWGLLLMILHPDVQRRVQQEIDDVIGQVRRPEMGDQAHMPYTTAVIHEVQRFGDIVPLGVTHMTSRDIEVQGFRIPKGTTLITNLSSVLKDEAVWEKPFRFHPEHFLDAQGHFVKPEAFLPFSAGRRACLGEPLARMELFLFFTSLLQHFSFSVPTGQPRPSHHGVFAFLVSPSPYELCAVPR
Prostaglandin E2 receptor EP4 subtype, sequence (P35408 whole entry): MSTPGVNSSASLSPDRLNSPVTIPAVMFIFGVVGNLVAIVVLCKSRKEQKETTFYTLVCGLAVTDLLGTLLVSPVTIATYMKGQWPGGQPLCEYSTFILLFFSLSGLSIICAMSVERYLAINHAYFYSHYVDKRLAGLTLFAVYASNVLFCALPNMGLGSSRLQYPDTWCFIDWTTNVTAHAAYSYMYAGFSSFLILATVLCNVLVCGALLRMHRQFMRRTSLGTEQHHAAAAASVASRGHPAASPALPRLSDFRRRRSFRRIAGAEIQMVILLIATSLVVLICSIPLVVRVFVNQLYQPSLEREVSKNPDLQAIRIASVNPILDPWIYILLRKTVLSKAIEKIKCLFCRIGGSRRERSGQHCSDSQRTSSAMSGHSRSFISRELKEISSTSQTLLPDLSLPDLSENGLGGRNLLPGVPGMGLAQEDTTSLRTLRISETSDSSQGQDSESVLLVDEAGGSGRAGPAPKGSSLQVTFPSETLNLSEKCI
Prostaglandin F2-alpha receptor, sequence (P43088 whole entry): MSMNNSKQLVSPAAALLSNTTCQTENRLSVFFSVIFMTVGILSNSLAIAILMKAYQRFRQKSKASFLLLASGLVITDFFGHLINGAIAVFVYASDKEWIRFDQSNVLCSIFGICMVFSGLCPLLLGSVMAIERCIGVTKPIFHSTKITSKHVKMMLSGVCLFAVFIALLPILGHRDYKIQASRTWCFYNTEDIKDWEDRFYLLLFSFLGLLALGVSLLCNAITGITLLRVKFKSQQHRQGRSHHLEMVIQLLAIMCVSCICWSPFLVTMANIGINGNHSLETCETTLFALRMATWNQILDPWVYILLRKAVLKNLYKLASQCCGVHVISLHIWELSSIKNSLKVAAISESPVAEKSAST
Cytochrome P450 2C9, sequence (P11712 whole entry): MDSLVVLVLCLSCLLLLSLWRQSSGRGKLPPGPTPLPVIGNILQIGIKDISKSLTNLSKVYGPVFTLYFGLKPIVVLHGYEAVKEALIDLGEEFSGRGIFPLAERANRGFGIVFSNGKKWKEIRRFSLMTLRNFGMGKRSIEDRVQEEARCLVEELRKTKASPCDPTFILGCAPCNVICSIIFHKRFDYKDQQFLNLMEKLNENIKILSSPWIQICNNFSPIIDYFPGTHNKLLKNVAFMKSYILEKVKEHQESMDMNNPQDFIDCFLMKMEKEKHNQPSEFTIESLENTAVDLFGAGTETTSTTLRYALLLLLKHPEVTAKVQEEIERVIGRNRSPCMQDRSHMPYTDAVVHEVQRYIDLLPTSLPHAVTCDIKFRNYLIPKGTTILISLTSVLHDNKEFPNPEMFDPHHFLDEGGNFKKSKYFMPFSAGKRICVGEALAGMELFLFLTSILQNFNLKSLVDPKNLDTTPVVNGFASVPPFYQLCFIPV
Cytochrome P450 2C19, sequence (P33261 whole entry): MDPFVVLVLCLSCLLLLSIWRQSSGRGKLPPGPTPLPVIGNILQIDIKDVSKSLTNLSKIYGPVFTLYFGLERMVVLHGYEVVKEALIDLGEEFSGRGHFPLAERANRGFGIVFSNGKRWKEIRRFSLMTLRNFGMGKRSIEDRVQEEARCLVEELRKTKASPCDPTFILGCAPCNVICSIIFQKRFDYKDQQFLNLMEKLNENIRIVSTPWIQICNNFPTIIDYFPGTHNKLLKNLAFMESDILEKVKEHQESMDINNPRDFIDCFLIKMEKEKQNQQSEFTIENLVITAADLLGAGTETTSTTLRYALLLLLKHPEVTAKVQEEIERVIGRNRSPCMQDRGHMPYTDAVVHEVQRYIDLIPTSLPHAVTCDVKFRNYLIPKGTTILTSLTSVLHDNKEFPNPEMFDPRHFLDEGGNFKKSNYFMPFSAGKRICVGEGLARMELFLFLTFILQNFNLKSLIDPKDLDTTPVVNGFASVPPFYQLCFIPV
Voltage-gated inwardly rectifying potassium channel KCNH2, sequence (Q12809 whole entry): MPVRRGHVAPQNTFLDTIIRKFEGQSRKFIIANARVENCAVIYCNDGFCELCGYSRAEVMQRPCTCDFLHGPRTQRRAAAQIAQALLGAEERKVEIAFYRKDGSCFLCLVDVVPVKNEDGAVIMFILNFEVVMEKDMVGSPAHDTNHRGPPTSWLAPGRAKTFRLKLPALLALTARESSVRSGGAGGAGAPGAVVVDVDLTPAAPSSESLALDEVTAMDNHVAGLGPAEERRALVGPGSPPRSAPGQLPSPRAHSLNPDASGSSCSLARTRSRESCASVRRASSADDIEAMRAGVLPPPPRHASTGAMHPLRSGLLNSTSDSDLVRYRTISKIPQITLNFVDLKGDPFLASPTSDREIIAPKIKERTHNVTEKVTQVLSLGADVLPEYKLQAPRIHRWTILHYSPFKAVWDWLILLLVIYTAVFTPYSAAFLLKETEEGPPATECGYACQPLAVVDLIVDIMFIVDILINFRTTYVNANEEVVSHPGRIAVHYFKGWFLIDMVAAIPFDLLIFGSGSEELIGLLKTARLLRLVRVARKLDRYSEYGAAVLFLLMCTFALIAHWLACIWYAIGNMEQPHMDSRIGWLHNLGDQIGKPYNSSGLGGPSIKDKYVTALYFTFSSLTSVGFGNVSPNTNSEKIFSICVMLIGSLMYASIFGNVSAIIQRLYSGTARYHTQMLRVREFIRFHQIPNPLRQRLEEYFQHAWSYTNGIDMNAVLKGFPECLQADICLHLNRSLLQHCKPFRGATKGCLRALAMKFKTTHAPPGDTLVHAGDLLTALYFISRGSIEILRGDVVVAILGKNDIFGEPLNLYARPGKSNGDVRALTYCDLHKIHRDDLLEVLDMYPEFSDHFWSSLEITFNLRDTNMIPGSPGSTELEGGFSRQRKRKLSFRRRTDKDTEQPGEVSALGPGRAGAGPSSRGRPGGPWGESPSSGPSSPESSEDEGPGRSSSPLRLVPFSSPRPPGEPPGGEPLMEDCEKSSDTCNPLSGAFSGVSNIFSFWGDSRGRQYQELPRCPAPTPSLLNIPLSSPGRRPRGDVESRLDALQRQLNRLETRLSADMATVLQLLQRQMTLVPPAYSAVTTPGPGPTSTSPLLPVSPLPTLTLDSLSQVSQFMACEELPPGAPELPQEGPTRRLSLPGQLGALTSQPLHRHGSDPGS

SMILES	Drug metabolism [1]	pKi [2]	clearance [3]	Drug metabolism [4]	AUC/dose (Rattus norvegicus)	half-life [5]	bioavailability [6]	Drug metabolism [7]	Drug metabolism [8]	pKi [9]	further results
CC(C)C1(c2ccc(-c3ccc4cccc(F)c4c3)[nH]c2=O)OC(=O)NC1=O (stereo not drawn)	Not Active	8.50	2.8 mL/min/kg	Not Active	5.6 µg·h/mL/mg/kg	3.9 h	93%	Not Active	Not Active	8.50	
CC(C)C1(c2ccc(-c3ccc4c(ccn4C)c3)[nH]c2=O)OC(=O)NC1=O (stereo not drawn)	Not Active	8.10	4.5 mL/min/kg	Not Active	3 µg·h/mL/mg/kg	4.2 h	80%	Not Active	Not Active	8.20	
CC(C)C1(c2ccc(-c3ccc4ccccc4c3)[nH]c2=O)OC(O)=NC1=O (stereo not drawn)	Active	8.00	2.6 mL/min/kg		5.5 µg·h/mL/mg/kg	4 h	83%		Not Active	8.00	pKi [10]: 8.30; pIC50 (Cytochrome P450 2D6): < 4.30; pIC50 [11]: < 4.00; pIC50 [12]: < 4.00; pIC50 [13]: < 4.30; pIC50 [14]: < 4.30; pIC50 [15]: < 4.30; solubility [16]: 193 µM (≈ 69.9 µg/mL); pKi [17]: < 4.30; pIC50 (Cytochrome P450 1A2): < 4.30; pIC50 [18]: < 4.30; pIC50 [19]: < 4.30; pIC50 (Cytochrome P450 2C9): < 4.30; pIC50 (Cytochrome P450 2C19): < 4.30; pIC50 (Cytochrome P450 3A4): < 4.30
